Source: patent publication US20160003808A1, “MOLECULAR TARGETS AND COMPOUNDS, AND METHODS TO IDENTIFY THE SAME, USEFUL IN THE TREATMENT OF DISEASES ASSOCIATED WITH EPITHELIAL MESENCHYMAL TRANSITION” (GALAPAGOS NV, priority 2013, published 2016)

Experiments:
Fibronectin (FN) = assay: EMT on target screen, FN read-out; type: cell-based, human; conditions: for OT FN Screen Z-score 2: as E11, duplicate 2; for Both (shRNA is a hit again in both OT assays, Yes/No): on target validation, Table 16; for OT FN Screen Z-score 1: robust Z-score, HBEC donor Br299, duplicate 1, cut-off Z ≦ −1.25
MMP10 = assay: EMT on target screen, MMP10 read-out; type: cell-based, human; conditions: for OT MMP10 Screen Z-score 2: as E13, duplicate 2; for OT MMP10 Screen Z-score 1: robust Z-score, HBEC donor Br299, duplicate 1, cut-off Z ≦ −1.25

Substance	OT FN Screen Z-score 2 (Fibronectin (FN))	Both (shRNA is a hit again in both OT assays, Yes/No) (Fibronectin (FN))	OT FN Screen Z-score 1 (Fibronectin (FN))	OT MMP10 Screen Z-score 2 (MMP10)	OT MMP10 Screen Z-score 1 (MMP10)	OT CTB assay Z-score 1 (HBEC)	OT CTB assay Z-score 2 (HBEC)
46 (ACTTCTGAGAGGTCACAGC; chemistry not given here) [compound 46]	-7.86	yes	-8.84	-2.42	-2.20	-2.43	-5.13
47 (GAACACGTACAAAGTCATT; chemistry not given here) [compound 47]	-5.03	no	-4.88	-6.24	-11.24	-7.55	-4.92
48 (GGATGGAGTTGGGAATCAC; chemistry not given here) [compound 48]	-3.44	yes	-3.28	-2.43	-2.26	-1.14	-3.01
49 (GAGGATGCCATTAAGTATT; chemistry not given here) [compound 49]	-1.84	no	-1.75	0.87	0.57	-0.78	-0.88
50 (GAGGCAGCCTTGTACTCTT; chemistry not given here) [compound 50]	-4.42	no	-2.42	-0.49	1.32	-0.51	2.33
51 (GGATCTTGGGTCCTATCCC; chemistry not given here) [compound 51]	-3.08	no	-2.90	-0.23	-0.02	-0.73	-2.03
52 (TGAATACTATGTGGGATTC; chemistry not given here) [compound 52]	-3.74	yes	-3.30	0.95	1.96	-3.43	-3.45
53 (TCAGCTGGGCGCTATGTTC; chemistry not given here) [compound 53]	-2.98	no	-3.01	0.45	-0.41	-3.97	-4.28
54 (GACTGGAAAGCGACGGGTC; chemistry not given here) [compound 54]	-3.15	no	-3.47	0.94	0.62	-4.02	-5.83
55 (AGGCTCACTTGCCTTTGGC; chemistry not given here) [compound 55]	-6.07	yes	-4.43	0.18	0.92	-4.29	-8.29
56 (TGATGGTTACCGCAAGATC; chemistry not given here) [compound 56]	-3.69	yes	-2.74	-5.05	-3.35	0.64	-2.23
57 (CCAAACCTGTGTCAACTTC; chemistry not given here) [compound 57]	-3.69	no	-8.59	-1.94	-0.60	-1.43	0.38
58 (GATCCCAGCAGTTATAACA; chemistry not given here) [compound 58]	-6.55	no	-2.47	-3.41	-3.06	-4.03	-2.02
59 (TGAAGGTCAAGAAGCCGGC; chemistry not given here) [compound 59]	-8.92	yes	-6.20	-1.19	-1.71	-6.59	-4.59
60 (AACCTGGCCATTCAGACCC; chemistry not given here) [compound 60]	-2.96	yes	-2.56	-0.06	-1.88	-7.10	-2.00
61 (CAATTCCCAAGGACAGGCT; chemistry not given here) [compound 61]	-1.44	no	-1.65	-2.31	-2.21	0.59	0.86
62 (CAGATTCCATCTGATGGCC; chemistry not given here) [compound 62]	-5.21	yes	-4.99	-2.79	-2.75	-3.19	-2.25
63 (GAATTTCAGAAGTACTGTG; chemistry not given here) [compound 63]	-3.76	no	-3.62	2.02	1.53	-2.12	-3.06
64 (GTCCAACAGAAGTACGTGC; chemistry not given here) [compound 64]	-2.52	no	-3.09	1.09	-0.07	1.00	-1.33
65 (GGCCATGATTGAGAAACTC; chemistry not given here) [compound 65]	-4.03	no	-4.35	-3.44	-5.08	1.09	1.89
66 (GAAGGAGCTACTCATCTTC; chemistry not given here) [compound 66]	-4.82	yes	-2.81	0.70	-1.93	-2.25	-4.39
67 (CAAGAGCGATGCCTATTAC; chemistry not given here) [compound 67]	-2.65	no	-3.19	0.32	1.39	-3.77	-3.83
68 (CATCAGCTTCCTGCTGGGC; chemistry not given here) [compound 68]	-5.66	yes	-4.29	-0.35	-1.18	-2.64	-2.21
69 (GATGGAGCGCTTACACTAC; chemistry not given here) [compound 69]	-5.75	no	-4.37	-3.43	-4.95	-3.34	-1.32
70 (GAGTTTGCCTACTCAGAGG; chemistry not given here) [compound 70]	-4.05	no	-4.52	-1.35	-4.35	0.19	1.51
71 (CACGGCTCTCCTATTTGTC; chemistry not given here) [compound 71]	-1.64	no	-1.73	0.95	0.88	-5.58	-4.56
72 (GAGTTGGACAGTGGAGGAC; chemistry not given here) [compound 72]	-7.31	yes	-3.99	-6.59	-4.52	-3.13	-4.22
